Test results as given in article PMC9428149, “Tackling recalcitrant Pseudomonas aeruginosa infections in critical illness via anti-virulence monotherapy” (Nature Communications, 2022).
In brackets after ≈: the same amount, converted by molar mass. Several values for one entry are separate records, joined by “and”; a condition that tells them apart may be missing. Identical values can stand only once. Like-named read-outs stand apart in the source and are kept apart here.

Assays:
[1] = tested on: pqsA promoter (PA14 PpqsA-GFPASV); experiment: pqsA-GFP reporter expression; assay type: cell-based, Pseudomonas aeruginosa
PA14 AT/P cells = experiment: AT/P cells formation assay in PA14; assay type: cell-based, Pseudomonas aeruginosa; settings: Pseudomonas aeruginosa, PA14, 24 h, read-out: inhibition of AT/P cells formation
MvfR protein (MvfRC87) = target: T1, MvfR protein (MvfRC87) (Pseudomonas aeruginosa, UniProt Q9I4X0); assay type: binding; settings: SPR
T1 construct: The MvfRC87 protein purified as in Xiao et. al., 2006; made in house
T1 sequence (Q9I4X0 87-332): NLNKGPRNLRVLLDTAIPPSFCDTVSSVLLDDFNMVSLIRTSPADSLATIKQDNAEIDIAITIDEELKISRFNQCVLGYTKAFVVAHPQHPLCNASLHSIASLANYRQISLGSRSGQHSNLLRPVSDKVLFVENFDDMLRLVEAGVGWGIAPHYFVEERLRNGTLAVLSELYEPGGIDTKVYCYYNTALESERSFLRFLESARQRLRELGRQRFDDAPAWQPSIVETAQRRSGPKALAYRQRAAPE
Experimental: The selected compounds were tested for their ability to bind to MvfR. Target validation was carried out by using surface plasmon resonance (SPR). The MvfRC87 protein purified as in Xiao et. al., 2006[33] was covalently immobilized on a CM7 Series S sensor chip using an amine coupling reagent kit (GE Healthcare) at the range level of 3000 to 5000 response units (RU). RU was analyzed by Biacore T200 evaluation software 2.0 (GE Healthcare). The relative response units (RUs) 5 seconds before the end of the association were extracted from the double-reference-corrected sensor grams at different concentrations. These responses were plotted against their respective concentrations for MvfR inhibitor alone and in the presence of native MvfR ligand PQS and compared to the calculated responses for the mixture expected for different binding sites.

[2] = Solubility in iPBS pH 7.4 by HPLC; assay type: physicochemical; settings: isotonic phosphate buffer (iPBS)
Outline: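 Compounds from 10 mM DMSO stock shaken 4 h at room temperature in iPBS pH 7.4 (10 mM PBS, 2.7 mM KCl, 140 mM NaCl, 0.05% Tween), then filtered. Concentration measured by HPLC-UV against a known standard solution; solubility given as ratio of compound in test solution to standard.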

[3] = tested on: pyocyanin production in PA14; experiment: Pyocyanin production assay; settings: Pseudomonas aeruginosa
[4] = tested on: 16 MDR P. aeruginosa clinical isolates; experiment: Pyocyanin production in MDR clinical isolates; settings: Pseudomonas aeruginosa, 18 h, Control about 100, replicates
ΔmvfR biofilm = experiment: Biofilm formation of ΔmvfR mutant (off-target); settings: Pseudomonas aeruginosa, PA14, 24 h, read-out: Biofilm formation, ΔmvfR + compound; PA14 about 100; single replicates (Figure 4c)
[5] = tested on: PA14 isogenic mutant ΔmvfR AT/P cells; experiment: AT/P cell formation in ΔmvfR mutant (off-target); settings: Pseudomonas aeruginosa, PA14, 24 h, read-out: AT/P cell formation, ΔmvfR + compound; PA14 about 100; single replicates (Figure 4b)
Experimental: Cells were grown in the presence of 10 μg mL^−1 meropenem, with or without 10 µM of the compounds for 24 h. Values were normalized to cells grown for 4 h in the absence of antibiotics and compounds. The ∆mvfR cells grown with antibiotics and vehicles were considered control, and the percentage values were calculated compared to control. c Biofilm formation of mutant ∆mvfR cells with or without compound. […] The number of biological replicates for each compound and strain is depicted in the graph. The error bars denote ±SEM.
The AT/P cell formation assay was performed according to the method previously described in Starkey et al., 2014 (persister cell assay). The over-day culture was incubated at 37 °C with shaking at 200 rpm until the culture OD600nm was 3.0. The culture was then diluted at 1:100 and grown in the same conditions for 4 h. After 4 h, 200 µL were collected, and serial dilutions were plated on LB agar plates for CFU quantification (as normalizers). The remainder of the culture was treated with meropenem to a final concentration of 100 × MIC (Minimum Inhibitory Concentration; 10 mg L^−1) and compounds at a final concentration of 10 µM. After 24 h, culture aliquots were 10-fold serially diluted in LB broth and plated on LB agar for CFU quantification. The AT/P fraction was determined as the normalizers (pre-antibiotic) ratio divided by the AT/P fraction (24 h post-antibiotic)[22].

[6] = tested on: MvfR-regulated small molecules in PA14; experiment: Production of HAQs, 2-AA, DHQ and AA in PA14 cultures (LC-MS); settings: for 2-AA / DHQ / HHQ / HQNO / PQS: Figure 5a; for 2-AA / DHQ / HHQ / HQNO / PQS / AA: replicates; for AA: Figure 5b; for activity at 50 µM / IC50 / inhibition at 50 µM: Pseudomonas aeruginosa

N#Cc1ccc(NC(=O)C(F)C(=O)Nc2ccc(Oc3ccccc3)cc2)cc1 (stereo not shown) [D88]
activity at 50 µM ([1]; Pseudomonas aeruginosa, PA14, read-out: % Production pqsA-GFP): 2%
IC50 ([1]; Pseudomonas aeruginosa, PA14, read-out: IC50 pqsA-GFP expression, PA14, 13 concentrations): 1.36 µM
IC50 ([1]; read-out: IC50 pqsA-GFP expression, PA14, 13 concentrations): 1.31 µM
inhibition at 10 µM (PA14 AT/P cells): ≥ 76%
Response Unit (RU) (MvfR protein (MvfRC87); Concentration 1.00E-05 M): 36.6 RU
Response Unit (RU) (MvfR protein (MvfRC87); Concentration 1.00E-06 M): 18.2 RU
Response Unit (RU) (MvfR protein (MvfRC87); Concentration 1.00E-07 M): 5.5 RU
Response Unit (RU) (MvfR protein (MvfRC87); Concentration 1.00E-08 M): 0.4 RU
Response Unit (RU) (MvfR protein (MvfRC87); Concentration 3.16E-06 M): 28.1 RU
Response Unit (RU) (MvfR protein (MvfRC87); Concentration 3.16E-07 M): 10.5 RU
Response Unit (RU) (MvfR protein (MvfRC87); Concentration 3.16E-08 M): 2.3 RU
solubility at 4 h ([2]; aqueous with cosolvent or surfactant or cyclodextrin, kinetic from dmso stock, iPBS pH 7.4, HPLC, read-out: Solubility (M) in PBS): 0.00049 M (≈ 191 µg/mL)
solubility at 4 h ([2]; pH 7.4, HPLC, read-out: solubility): 0.00049 M (≈ 191 µg/mL)
activity at 50 µM ([3]; PA14, 18 h, read-out: % Production Pyocyanin): 6%
IC50 ([3]; PA14, read-out: IC50 pyocyanin production): 0.53 µM
activity at 10 µM ([4]; read-out: Pyocyanin production relative to Control, clinical isolate LGR-4325): 17.1%
activity at 10 µM ([4]; read-out: Pyocyanin production relative to Control, clinical isolate LGR-4326): 8.91%
activity at 10 µM ([4]; read-out: Pyocyanin production relative to Control, clinical isolate LGR-4327): 8.23%
activity at 10 µM ([4]; read-out: Pyocyanin production relative to Control, clinical isolate LGR-4328): 27.7%
activity at 10 µM ([4]; read-out: Pyocyanin production relative to Control, clinical isolate LGR-4330): 33.3%
activity at 10 µM ([4]; read-out: Pyocyanin production relative to Control, clinical isolate LGR-4331 (first section, r117)): 12.7%
activity at 10 µM ([4]; read-out: Pyocyanin production relative to Control, clinical isolate LGR-4331 (second section, r140)): 5.55%
activity at 10 µM ([4]; read-out: Pyocyanin production relative to Control, clinical isolate LGR-4333): 10.5%
activity at 10 µM ([4]; read-out: Pyocyanin production relative to Control, clinical isolate LGR-4343): 12.2%
activity at 10 µM ([4]; read-out: Pyocyanin production relative to Control, clinical isolate LGR-4344): 12.7%
activity at 10 µM ([4]; read-out: Pyocyanin production relative to Control, clinical isolate LGR-4348): 8.7%
activity at 10 µM ([4]; read-out: Pyocyanin production relative to Control, clinical isolate LGR-4356): 10.8%
activity at 10 µM ([4]; read-out: Pyocyanin production relative to Control, clinical isolate LGR-4362): 13.9%
activity at 10 µM ([4]; read-out: Pyocyanin production relative to Control, clinical isolate LGR-4363): 17.7%
activity at 10 µM ([4]; read-out: Pyocyanin production relative to Control, clinical isolate LGR-4364 (first section, r326)): 17.2%
activity at 10 µM ([4]; read-out: Pyocyanin production relative to Control, clinical isolate LGR-4364 (second section, r349)): 19.4%
activity at 10 µM (ΔmvfR biofilm): 43.6%
activity at 10 µM [5]: 34.2%
2-AA ([6]; Compound 4.88e-8 M): 20.87 and 7.96 and 12.86
DHQ ([6]; Compound 4.88e-8 M): 15.28 and 24.13 and 25.25
HHQ ([6]; Compound 4.88e-8 M): -10.38 and -9.83 and -4.34
HQNO ([6]; Compound 4.88e-8 M): 23.03 and 20.64 and 19.09
2-AA ([6]; Compound 9.77e-8 M): 21.63 and 8.61 and -0.13
DHQ ([6]; Compound 9.77e-8 M): 23.53 and 26.23 and 29.13
HHQ ([6]; Compound 9.77e-8 M): 0.19 and 2.23 and -9.33
HQNO ([6]; Compound 9.77e-8 M): 18.24 and 19.63 and 16.60
PQS ([6]; Compound 9.77e-8 M): 1.00 and -2.02 and -4.38
2-AA ([6]; Compound 1.95e-7 M): 4.17 and 23.60 and 8.88
DHQ ([6]; Compound 1.95e-7 M): 24.27 and 28.60 and 33.04
HHQ ([6]; Compound 1.95e-7 M): -0.13 and 9.98 and 9.62
HQNO ([6]; Compound 1.95e-7 M): 22.51 and 25.08 and 21.13
2-AA ([6]; Compound 3.91e-7 M): 26.65 and 26.00 and 18.02
DHQ ([6]; Compound 3.91e-7 M): 19.73 and 32.57 and 33.17
HHQ ([6]; Compound 3.91e-7 M): 5.11 and 8.17 and 11.07
HQNO ([6]; Compound 3.91e-7 M): 30.53 and 30.32 and 29.72
PQS ([6]; Compound 3.91e-7 M): -1.07 and -0.58 and 0.13
2-AA ([6]; Compound 7.81e-7 M): 26.65 and 26.00 and 18.02
DHQ ([6]; Compound 7.81e-7 M): 19.73 and 32.57 and 33.17
HHQ ([6]; Compound 7.81e-7 M): 5.11 and 8.17 and 11.07
HQNO ([6]; Compound 7.81e-7 M): 30.53 and 30.32 and 29.72
PQS ([6]; Compound 7.81e-7 M): -1.07 and -0.58 and 0.13
2-AA ([6]; Compound 1.56e-6 M): 57.52 and 53.71 and 61.03
DHQ ([6]; Compound 1.56e-6 M): 42.56 and 47.41 and 47.02
HQNO ([6]; Compound 1.56e-6 M): 65.26 and 66.09 and 66.02
PQS ([6]; Compound 1.56e-6 M): 20.92 and 18.95 and 23.15
2-AA ([6]; Compound 3.13e-6 M): 77.80 and 71.94 and 73.15
DHQ ([6]; Compound 3.13e-6 M): 23.18 and 25.25 and 33.98
HHQ ([6]; Compound 3.13e-6 M): 18.71 and 27.16 and 24.99
HQNO ([6]; Compound 3.13e-6 M): 83.76 and 83.46 and 82.00
PQS ([6]; Compound 3.13e-6 M): 64.68 and 63.03 and 59.62
2-AA ([6]; Compound 6.25e-6 M): 94.51 and 93.72 and 94.23
DHQ ([6]; Compound 6.25e-6 M): 82.36 and 85.39 and 83.09
HHQ ([6]; Compound 6.25e-6 M): 97.83 and 98.02 and 97.82
HQNO ([6]; Compound 6.25e-6 M): 95.97 and 95.46 and 95.76
PQS ([6]; Compound 6.25e-6 M): 95.61 and 95.53 and 95.05
2-AA ([6]; Compound 1.25e-5 M): 96.17 and 96.56 and 95.88
DHQ ([6]; Compound 1.25e-5 M): 89.15 and 89.66 and 90.01
HHQ ([6]; Compound 1.25e-5 M): 98.67 and 99.17 and 97.08
HQNO ([6]; Compound 1.25e-5 M): 97.36 and 97.63 and 97.60
PQS ([6]; Compound 1.25e-5 M): 98.30 and 97.73 and 97.38
2-AA ([6]; Compound 2.5e-5 M): 96.54 (2×) and 95.16
DHQ ([6]; Compound 2.5e-5 M): 90.35 and 91.27 and 89.56
HHQ ([6]; Compound 2.5e-5 M): 99.13 (2×) and 96.58
HQNO ([6]; Compound 2.5e-5 M): 97.58 and 97.87 and 97.81
PQS ([6]; Compound 2.5e-5 M): 98.11 and 97.67 and 97.24
2-AA ([6]; Compound 5e-5 M): 97.65 and 97.17 and 97.36
DHQ ([6]; Compound 5e-5 M): 92.04 and 92.63 and 92.02
HHQ ([6]; Compound 5e-5 M): 98.82 and 99.10 and 99.16
HQNO ([6]; Compound 5e-5 M): 98.11 and 98.35 and 97.80
PQS ([6]; Compound 5e-5 M): 97.51 and 97.36 and 96.79
AA ([6]; Compound 1.25E-05 M): 599.608 and 615.624 and 726.139
AA ([6]; Compound 1.56E-06 M): 43.3838 and 42.5844 and 52.2801
AA ([6]; Compound 1.95E-07 M): 66.4944 and 66.9002 and 61.8554
AA ([6]; Compound 2.50E-05 M): 648.607 and 690.995 and 748.985
AA ([6]; Compound 3.13E-06 M): 37.3675 and 38.4724 and 34.81
AA ([6]; Compound 4.88E-08 M): 60.2138 and 71.5203 and 96.3706
AA ([6]; Compound 5.00E-05 M): 538.963 and 599.424 and 657.09
AA ([6]; Compound 6.25E-06 M): 537.56 and 609.034 and 598.829
AA ([6]; Compound 7.81E-07 M): 70.2961 and 63.8933 and 86.4668
AA ([6]; Compound 9.77E-08 M): 72.0385 and 90.409 and 103.511
activity at 50 µM ([6]; PA14, read-out: % Production 2-AA): 7%
activity at 50 µM ([6]; PA14, read-out: % Production AA): 832%
activity at 50 µM ([6]; PA14, read-out: % Production DHQ): 7%
activity at 50 µM ([6]; PA14, read-out: % Production HHQ): 1%
activity at 50 µM ([6]; PA14, read-out: % Production HQNO): 14%
activity at 50 µM ([6]; PA14, read-out: % Production PQS): 4%
IC50 ([6]; PA14, read-out: AA, dose-dependent production (IC50 curve)): 4.7 µM
inhibition at 50 µM ([6]; PA14, read-out: HHQ production inhibition): 89 to 99%
inhibition at 50 µM ([6]; PA14, read-out: HQNO production inhibition): 40 to 92%
IC50 ([6]; PA14, read-out: IC50 against 2-AA production): 1.5 µM
IC50 ([6]; PA14, read-out: IC50 against DHQ production): 4.14 µM
IC50 ([6]; PA14, read-out: IC50 against HHQ production): 3.1 µM
IC50 ([6]; PA14, read-out: IC50 against HQNO production): 1.3 µM
IC50 ([6]; PA14, read-out: IC50 against PQS production): 2.1 µM
inhibition at 50 µM ([6]; PA14, read-out: PQS production inhibition): 76 to 97%
inhibition at 50 µM ([6]; PA14, read-out: inhibition of 2-AA production): 82 to 95%
inhibition at 50 µM ([6]; PA14, read-out: inhibition of DHQ production): 82 to 96%
